The text below walks through data of patent publication US20190016746A1, “AMINOGLYCOSIDE DERIVATIVES AND USES THEREOF IN TREATING GENETIC DISORDERS” (Eloxx Pharmaceuticals Ltd., priority 2016, published 2019).

The target in series [1] is eukaryotic cytoplasmic ribosome. In words: Eukaryotic in vitro translation inhibition, TNT T7 Quick Coupled Transcription/Translation System with luciferase plasmid. Type of series: biochemical. The following applies: for IC50: read-out: Translation Inhibition IC50^Euk; for more specific to the eukaryotic ribosome than structurally related compound: NB156 vs NB74, NB157 vs NB124. How it is done:
(§1) Prokaryotic in vitro translation inhibition by the different aminoglycosides was quantified in coupled transcription/translation assays by using E. coli S30 extract for circular DNA with the pBESTluc plasmid (Promega), according to the manufacturer's protocol. Translation reactions (25 μL) that contained variable concentrations of the tested aminoglycoside were incubated at 37° C. for 60 minutes, cooled on ice for 5 minutes, and diluted with a dilution reagent (tris-phosphate buffer (25 mM, pH 7.8), DTT (2 mM), 1,2-diaminocyclohexanetetraacetate (2 mM), glycerol (10%), Triton X-100 (1%) and BSA (1 mg mL-1)) into 96-well plates. Eukaryotic in vitro translation inhibition was quantified by use of TNT® T7 Quick Coupled Transcription/Translation System with a luciferase T7 control DNA plasmid (Promega), according to the manufacturer protocol. Translation reactions (25 μL) containing variable concentrations of the tested aminoglycoside were incubated at 30° C. for 60 minutes, cooled on ice for 5 minutes, diluted with the dilution reagent and transferred into 96-well plates. In both prokaryotic and eukaryotic systems the luminescence was measured immediately after the addition of the Luciferase Assay Reagent (50 μL; Promega), and the light emission was recorded with a FLx800 Fluorescence Microplate Reader (Biotek). The half-maximal inhibition concentration (IC50) values were obtained from fitting concentration-response curves to the data of at least two independent experiments by using Grafit 5 software.
(§2) In all biological tests, all AGs were in their sulfate salt forms, and the concentrations refer to the free amine form of each AG. The eukaryotic and prokaryotic half-maximal-inhibition values (IC50^Euk and IC50^Pro) were quantified in coupled transcription/translation assays by using active luciferase detection as previously described. Minimal inhibitory concentration (MIC) values were determined by using the double-microdilution method.

The subject of series [2] is prokaryotic ribosome (E. coli S30 extract). In words: Prokaryotic in vitro translation inhibition, E. coli S30 extract with pBESTluc plasmid. The series is classed as biochemical. The following applies: read-out: Translation Inhibition IC50^Pro. How it is done: as §1, §2
Series [3] has as its system R3X nonsense mutation construct representing USH1 (PCDH15). In words: Dual luciferase in vitro readthrough assay, R3X construct. The series is classed as biochemical. The following applies: FIG. 3. From the text:
(§3) DNA fragments derived from PCDH15, CFTR, and IDUA cDNAs, including the tested nonsense mutation or the corresponding wild type (wt) codon, and four to six upstream and downstream flanking codons were created by annealing the following pairs of complementary oligonucleotides:
(§4) Fragments were inserted in frame into the polylinker of the p2Luc plasmid between either BamHI and SacI (p.R3X and p.R245X) or SalI and SacI (all the rest) restriction sites. For the in vitro readthrough assays, the obtained plasmids, with addition of the tested aminoglycosides were transcribed and translated using the TNT Reticulocyte Lysate Quick Coupled Transcription/Translation System. Luciferase activity was determined after 90 minutes of incubation at 30° C., using the Dual Luciferase Reporter Assay System (Promega™).
FIG. 3 presents comparative plots showing in vitro stop codon suppression levels induced by Compound 1 (-▪-), NB153 (-▴-), and NB155 (-Δ-) in R3X nonsense mutation construct representing USH1 genetic disease.

The subject of series [4] is B. subtilis ATCC-6633. In words: Antibacterial activity, MIC by double-microdilution method. Type of series: cell-based. The settings on record: Table 2. On the procedure:
(§5) Comparative antibacterial activities were determined in two representative strains of Gram-negative (E. coli R477-100) and Gram-positive (B. subtilis ATCC-6633) bacteria, by measuring the MIC values using the double-microdilution method according to the National Committee for Clinical Laboratory Standards (NCCLS) (NCCLS. National Committee for Clinical Laboratory Standards, Performance standards for antimicrobial susceptibility testing. Fifth information supplement: Approved Standard M100-S5; Villanova, Pa.: NCCLS, 1994.).
as §2
(In broth dilution the organism is exposed to a series of concentrations in liquid medium.)

The test system of series [5] is E. coli R477-100. The description is as above. Type of series: cell-based. The following applies: for MIC: Escherichia coli, R477100, read-out: Antibacterial activity MIC E. coli R477/100. How it is done:
as §5, §2

Series [6] has as its system nonsense constructs R3X (USH1), R245X (USH1), Q70X (HS), G542X (CF). In words: Dual luciferase in vitro readthrough assay, four nonsense constructs. Type of series: biochemical. The settings on record: all mutations tested, FIGS. 4A-D; for readthrough activity relative to structurally related compound lacking 7′-hydroxyl: NB156 vs NB74, NB157 vs NB124.
Source text: as §3, §4
Activity was tested using a collection of dual-luciferase reporter plasmids, containing different sequence contests around premature stop codons derived from the PCDH15, CFTR, and IDUA genes that underline USH1, CF, and MPS I-H, respectively. The exemplified nonsense reporters were R3X and R245X for USH1, G542X for CF, and Q70X for MPS I-H.
The results are averages of at least three independent experiments.

The test system of series [7] is stop codon mutations of Table 3. In words: Dual-luciferase readthrough assay, broad arsenal of stop codon mutations. Type of series: biochemical. The settings on record: all tested mutations. On the procedure: In these assays, the readthrough of a broad arsenal of stop codon mutations in the presence of NB156 and NB157 was tested. Briefly, NB156 and NB157 were tested at escalating doses for their read-through properties towards the nonsense mutation using the wild-type (WT) sequence of each specific complementary DNA (cDNA) as a control, and plasmids bearing the stop codon mutations in a dual-luciferase assay. DNA fragments derived from different cDNAs were prepared using either the WT or nonsense mutation, in which the sequences from the mutant or wild-type codon were surrounded by four to six upstream and downstream flanking codons. The cDNA sequence was inserted into the polylinker of the p2luc plasmid for each sequence.

Series [8] concerns human fibroblast cells. The following applies: cited from earlier work.
For series [9], the system named is premature termination codon (PTC). In words: Comparative in-vitro PTC suppression activity assays (Example 3). The settings on record: preliminary. The series is classed as biochemical. How it is done:
as §4

The mark [10] stands for this setting: Table 2, sulfate salts, concentrations refer to free amine form.

Like-named read-outs stand apart in the source and are kept apart here. Bounds are passed on as bounds.

Broadly, the IC50 is the concentration at which inhibition is half-maximal.

`NC[C@H]1O[C@@H](OC2C(O)[C@H](N)CC(N)[C@H]2O[C@H]2OC(CO)[C@@H](O)C(O)C2N)C(O)C1O` (stereo partly shown) [NB30, reference compound]: the IC50 in series [1] (Table 4) came to 31 ± 4 µM; in [2] (Table 4) it was 0.45 ± 0.03 µM.
Consider `N[C@H]1[C@@H](O[C@H]2[C@H](O)[C@@H](O)[C@H](N)C[C@@H]2N)O[C@H]([C@@H](O)CO)[C@@H](O)[C@@H]1O` [NB155, (2R,3S,4R,5R,6S)-5-amino-6-(((1R,2R,3S,4R,6S)-4,6-diamino-2,3-dihydroxycyclohexyl)oxy)-2-((S)-1,2-dihydroxyethyl)tetrahydro-2H-pyran-3,4-diol], for which the IC50 worked out at 516 ± 15 µM in series [1] (setting [10]) and 91.9 ± 8.4 µM in [2] (setting [10]). For the same molecule, the “in vitro readthrough activity relative to Compound 1” value in [3] is recorded as “somewhat higher activity”.
As to gentamicin [reference compound], the IC50 in series [1] (setting [10]) worked out at 62 µM; in series [2] (setting [10]), 0.03 µM. Moreover, in series [4], the “Antibacterial Activity MIC B. Subtilis ATCC6633” value was under 0.75 µM. For the same molecule, in series [5] (Table 2), the “Antibacterial Activity MIC E. Coli R 477/100” value was 6 µM.
For `C[C@H](N)[C@H]1O[C@@H](OC2C(O)[C@H](N)CC(N)[C@H]2O[C@H]2OC(CO)[C@@H](O)C(O)C2N)C(O)C1O` (stereo partly shown) [NB118, reference compound], the IC50 is 15.5 ± 1.3 µM in series [1] (Table 4) and 1.9 ± 0.2 µM in series [2] (Table 4).
Consider `NC[C@H]1O[C@@H](O[C@@H]2[C@@H](O)[C@H](N)C[C@H](N)[C@H]2O[C@H]2O[C@H]([C@H](O)CO)[C@@H](O)[C@H](O)[C@H]2N)[C@@H](O)[C@H]1O` [NB156, (2R,3S,4R,5R,6S)-5-amino-6-(((1R,2R,3S,4R,6S)-4,6-diamino-2-(((2S,3S,4R,5R)-5-(aminomethyl)-3,4-dihydroxytetrahydrofuran-2-yl)oxy)-3-hydroxycyclohexyl)oxy)-2-((R)-1,2-dihydroxyethyl)tetrahydro-2H-pyran-3,4-diol], for which the “more specific to the eukaryotic ribosome than structurally related compound” value in [1] is given as 1.85 fold. The IC50 in series [1] (setting [10]) came to 7.5 ± 0.5 µM. Moreover, the IC50 in [2] (setting [10]) is 0.7 ± 0.1 µM. In addition, in series [6], the “readthrough activity relative to gentamicin” value was “significantly better” and the “readthrough activity relative to structurally related compound lacking 7′-hydroxyl” value is on record as “substantially better”. Also, the “stop-codon mutation readthrough activity compared to NB74” value in series [7] is reported as “more active than NB74”.
In the case of `CN[C@@H]1[C@@H](O)[C@@H](O[C@@H]2[C@@H](O)[C@H](O[C@H]3O[C@H]([C@@H](C)O)[C@@H](O)[C@H](O)[C@H]3N)[C@@H](N)C[C@H]2N)OC[C@]1(C)O` [Compound G418, geneticin], in series [8], the LD50 is 0.04 mg/mL.
Regarding `C[C@H](N)[C@H]1O[C@@H](O[C@@H]2[C@@H](O)[C@H](N)C[C@H](N)[C@H]2O[C@H]2O[C@H]([C@H](O)CO)[C@@H](O)[C@H](O)[C@H]2N)[C@@H](O)[C@H]1O` [NB157, (2R,3S,4R,5R,6S)-5-amino-6-(((1R,2R,3S,4R,6S)-4,6-diamino-2-(((2S,3S,4R,5R)-5-((S)-1-aminoethyl)-3,4-dihydroxytetrahydrofuran-2-yl)oxy)-3-hydroxycyclohexyl)oxy)-2-((R)-1,2-dihydroxyethyl)tetrahydro-2H-pyran-3,4-diol], in series [1], the “more specific to the eukaryotic ribosome than structurally related compound” value was 1.25 fold. Further, the IC50 in series [1] (setting [10]) amounted to 1.2 µM. For the same molecule, in [6], the “readthrough activity relative to gentamicin” value is listed as “significantly better” and the “readthrough activity relative to structurally related compound lacking 7′-hydroxyl” value is on record as “better”.
As to `C[C@H](N)[C@H]1O[C@@H](O[C@@H]2C(O)[C@H](N)CC(N)[C@H]2O[C@H]2OC(CO)=CC(O)[C@@H]2N)C(O)[C@H]1O` (stereo partly shown) [NB159], the values for the IC50 in series [1] (Table 4) and in [2] (Table 4) were 47.9 ± 3.3 µM and 134 ± 2.8 µM, respectively. In addition, the MIC in series [5] is over 192 µg/mL.
As to `CC(O)C1O[C@H](O[C@@H]2C(N)C[C@@H](N)C(O)C2O[C@@H]2O[C@H]([C@H](C)N)C(O)C2O)C(N)C(O)[C@@H]1O` (single isomer, unassigned) [NB124, reference compound], the IC50 in series [1] (setting [10]) is 1.5 ± 0.1 µM; in series [2] (setting [10]) it was 1.1 ± 0.2 µM. Also, the MIC in series [5] stood at 1270 µM.
For the molecule `NC[C@H]1O[C@@H](O[C@@H]2C(O)[C@H](N)CC(N)[C@H]2O[C@H]2OC(CO)=CC(O)[C@@H]2N)C(O)[C@H]1O` (stereo partly shown) [NB158], the IC50 in series [1] (Table 4) came to 70.7 ± 2.4 µM; in series [2] (Table 4), 36.4 ± 3.5 µM. For the same molecule, the MIC in series [5] is over 192 µg/mL.
Take `N[C@H]1[C@@H](O[C@H]2[C@H](O)[C@@H](O)[C@H](N)C[C@@H]2N)O[C@H]([C@H](O)CO)[C@@H](O)[C@@H]1O` [NB153, (2R,3S,4R,5R,6S)-5-amino-6-(((1R,2R,3S,4R,6S)-4,6-diamino-2,3-dihydroxycyclohexyl)oxy)-2-((R)-1,2-dihydroxyethyl)tetrahydro-2H-pyran-3,4-diol]: the 50% inhibitory concentration (IC50) in series [1] (setting [10]) is 120 ± 14.5 µM; in [2] (setting [10]), 11 ± 1.2 µM. In addition, the “in vitro readthrough activity relative to Compound 1” value in [3] is “dramatically increases”.
On to `N[C@H]1[C@@H](O[C@H]2[C@H](O)[C@@H](O)[C@H](N)C[C@@H]2N)O[C@H](CO)[C@@H](O)[C@@H]1O` [Paro., paromamine, reference compound], for which the IC50 in series [1] (Table 4) is 760 ± 79 µM; in series [2] (Table 4) it was 14 ± 1.2 µM.
With `N[C@H]1[C@@H](O[C@H]2[C@H](O)[C@@H](O)[C@H](N)C[C@@H]2N)OC(CO)=C[C@@H]1O` [NB154, (1S,2R,3R,4S,6R)-4,6-diamino-3-(((2S,3R,4S)-3-amino-4-hydroxy-6-(hydroxymethyl)-3,4-dihydro-2H-pyran-2-yl)oxy)cyclohexane-1,2-diol], the IC50 in series [1] (Table 4) stood at 376 ± 38.6 µM. Also, the IC50 in series [2] (Table 4) was found to be 82.3 ± 11.9 µM. Moreover, in series [9], the “readthrough activity relative to NB82” value is reported as “more or less similar activity” and the “readthrough activity relative to paromamine” value was about 3.5 fold.
